Converted amounts (≈) assume the structure as drawn. Where two headings read alike, the source gives them in different places.
Assays:
H. influenzae ATCC 49247 = experiment: post-antibiotic effect (PAE) testing
S. aureus = experiment: mouse systemic infection model (PD50); type: in vivo
S. pyogenes [1] = type: cell-based
M. pneumoniae = experiment: microbe, parasite or virus in culture; type: cell-based; details: Mycoplasmoides pneumoniae
[2] = system: viridans group streptococci (VGS); type: cell-based; details: VGS (51)
N. meningitidis = experiment: MIC, CLSI broth microdilution, invasive isolates; type: cell-based; details: Neisseria meningitidis; 62 N. meningitidis isolates
Description: Example. […] Colonization of the nasopharynx (NP) by NM can lead to invasive meningococcal disease. Chemoprophylaxis is used to eradicate NP colonization and prevent transmission to nonimmune contacts. […] 62 isolates (91.9% blood culture) of NM were collected from 29 medical centers in North and South America and Europe (1997-2008). […] Serological identification was performed for serogroups (SGs) B, C, Y and W135.

S. pyogenes [3] = experiment: MIC of the strains of the mouse systemic infection model; type: cell-based; details: Streptococcus pyogenes
M. genitalium = type: cell-based; details: M. genitalium (5 isolates)
M. hominis = type: cell-based; details: M. hominis (13 isolates)
S. pyogenes [4] = experiment: mouse systemic infection model (PD50); type: in vivo
S. pyogenes 3029 = experiment: Intraperitoneal (IP) mouse infection model (ED50); type: in vivo; details: Streptococcus pyogenes, MAC-R S. pyogenes 3029
S. pneumoniae [5] = experiment: mouse systemic infection model (PD50); type: in vivo
S. pneumoniae [6] = type: cell-based
U. parvum = experiment: MIC testing in 10B broth (colour change); type: cell-based, Ureaplasma parvum; details: U. parvum (10 isolates)
[7] = S. pyogenes (macrolide susceptible)

## CC[C@H]1OC(=O)[C@@](C)(F)C(=O)[C@H](C)[C@@H](OC2OC(C)CC(N(C)C)C2O)[C@@](C)(OC)C[C@@H](C)C(=O)[C@H](C)[C@H]2N(CCCCn3cc(-c4cccc(N)c4)nn3)C(=O)O[C@]12C (some centres unmarked) [CEM-101, 11-N-4-(3-aminophenyl)-[1,2,3]triazol-1-yl]-butyl}-5-desosaminyl-3-oxo-2-fluoro-erythronolide A,-11,12-cyclic carbamate]
H. influenzae ATCC 49247; Gram-negative pathogens
  average PAE: 4.5 h
H. influenzae ATCC 49247; H. influenzae ATCC 49247, 4X MIC, exposure 1 hour
  PAE: 3.2 h
S. aureus; MRSA
  PD50: 7.5 mg/kg
S. aureus; MRSA 300 (CA)
  PD50: 9.5 mg/kg
S. aureus; S. aureus, single oral dose 1 hr post infection
  PD50: 16.3 mg/kg
S. pyogenes [1]; strain 237 Macrolide-R [L4 mutation], 2 × MIC
  single step mutation frequency: <1.3 × 10^−10
S. pyogenes [1]; strain 237 Macrolide-R [L4 mutation], 4 × MIC
  single step mutation frequency: <1.3 × 10^−10
S. pyogenes [1]; strain 237 Macrolide-R [L4 mutation], 8 × MIC
  single step mutation frequency: <1.3 × 10^−10
S. pyogenes [1]; strain 2011 Macrolide-R [mef(A)], 2 × MIC
  single step mutation frequency: 3.9 × 10^−8
S. pyogenes [1]; strain 2011 Macrolide-R [mef(A)], 4 × MIC
  single step mutation frequency: <1.1 × 10^−10
S. pyogenes [1]; strain 2011 Macrolide-R [mef(A)], 8 × MIC
  single step mutation frequency: <1.1 × 10^−10
S. pyogenes [1]; strain 2094 Macrolide-R [erm(A)], 2 × MIC
  single step mutation frequency: 5.3 × 10^−8
S. pyogenes [1]; strain 2094 Macrolide-R [erm(A)], 4 × MIC
  single step mutation frequency: 2.1 × 10^−9
S. pyogenes [1]; strain 2094 Macrolide-R [erm(A)], 8 × MIC
  single step mutation frequency: <5.3 × 10^−10
S. pyogenes [1]; strain 2132 Macrolide-S, 2 × MIC
  single step mutation frequency: <1.0 × 10^−10
S. pyogenes [1]; strain 2132 Macrolide-S, 4 × MIC
  single step mutation frequency: <1.0 × 10^−10
S. pyogenes [1]; strain 2132 Macrolide-S, 8 × MIC
  single step mutation frequency: <1.0 × 10^−10
S. pyogenes [1]; strain 2368 Macrolide-R [erm(B)], 2 × MIC
  single step mutation frequency: <5.9 × 10^−11
S. pyogenes [1]; strain 2368 Macrolide-R [erm(B)], 4 × MIC
  single step mutation frequency: <5.9 × 10^−11
S. pyogenes [1]; strain 2368 Macrolide-R [erm(B)], 8 × MIC
  single step mutation frequency: <5.9 × 10^−11
M. pneumoniae
  MIC50: 0.032 ng/mL (≈ 0.0379 nM)
[2]
  MIC50: ≤ 8 ng/mL
  MIC90: 60 ng/mL (≈ 71 nM)
  MIC Range: ≦0.008-0.12 μg/ml
N. meningitidis
  MIC50: ≤ 15 ng/mL
  MIC90: ≤ 15 ng/mL
S. pyogenes [3]; S. pyogenes (erythromycin R)
  MIC: 1000 ng/mL
S. pyogenes [3]; [7]
  MIC: 15 ng/mL
M. genitalium
  MIC Range: ≦0.000032 μg/mL
M. hominis
  MIC Range: 2 to 8 ng/mL
M. hominis; Metamycoplasma hominis, read-out: MIC50
  MIC50: 4 ng/mL (≈ 4.73 nM)
M. hominis; Metamycoplasma hominis, read-out: MIC90
  MIC90: 8 ng/mL (≈ 9.47 nM)
S. pyogenes [4]; S. pyogenes (erythromycin R)
  PD50: 5.1 mg/kg
S. pyogenes [4]; [7]
  PD50: 9.4 mg/kg
S. pyogenes 3029
  ED50: 2.5 mg/kg
S. pneumoniae [5]; S. pneumoniae (macrolide susceptible)
  PD50: 6.0 mg/kg
S. pneumoniae [5]; S. pneumoniae (mefR)
  PD50: 23.2 mg/kg
S. pneumoniae [5]; S. pneumoniae serotype 19A
  PD50: 6.6 mg/kg
S. pneumoniae [6]; strain 24 Macrolide-R [erm(B)], 2 × MIC
  single step mutation frequency: 1.8 × 10^−7
S. pneumoniae [6]; strain 24 Macrolide-R [erm(B)], 4 × MIC
  single step mutation frequency: <5.0 × 10^−9
S. pneumoniae [6]; strain 24 Macrolide-R [erm(B)], 8 × MIC
  single step mutation frequency: <5.0 × 10^−9
S. pneumoniae [6]; strain 1076 Macrolide-R [erm(B)&mef(A)], 2 × MIC
  single step mutation frequency: <2.5 × 10^−8
S. pneumoniae [6]; strain 1076 Macrolide-R [erm(B)&mef(A)], 4 × MIC
  single step mutation frequency: 7.5 × 10^−9
S. pneumoniae [6]; strain 1076 Macrolide-R [erm(B)&mef(A)], 8 × MIC
  single step mutation frequency: 2.0 × 10^−9
S. pneumoniae [6]; strain 1077 Macrolide-S, 2 × MIC
  single step mutation frequency: <9.1 × 10^−9
S. pneumoniae [6]; strain 1077 Macrolide-S, 4 × MIC
  single step mutation frequency: <9.1 × 10^−9
S. pneumoniae [6]; strain 1077 Macrolide-S, 8 × MIC
  single step mutation frequency: <9.1 × 10^−9
S. pneumoniae [6]; strain 1635 Macrolide-R [erm(A)], 2 × MIC
  single step mutation frequency: 1.6 × 10^−8
S. pneumoniae [6]; strain 1635 Macrolide-R [erm(A)], 4 × MIC
  single step mutation frequency: <2.0 × 10^−10
S. pneumoniae [6]; strain 1635 Macrolide-R [erm(A)], 8 × MIC
  single step mutation frequency: <2.0 × 10^−10
S. pneumoniae [6]; strain 2686 Macrolide-R [L4 mutation], 2 × MIC
  single step mutation frequency: <2.5 × 10^−9
S. pneumoniae [6]; strain 2686 Macrolide-R [L4 mutation], 4 × MIC
  single step mutation frequency: <2.5 × 10^−9
S. pneumoniae [6]; strain 2686 Macrolide-R [L4 mutation], 8 × MIC
  single step mutation frequency: <2.5 × 10^−9
S. pneumoniae [6]; strain 3009 Macrolide-R [23S rRNA mutation], 2 × MIC
  single step mutation frequency: <5.9 × 10^−9
S. pneumoniae [6]; strain 3009 Macrolide-R [23S rRNA mutation], 4 × MIC
  single step mutation frequency: <5.9 × 10^−9
S. pneumoniae [6]; strain 3009 Macrolide-R [23S rRNA mutation], 8 × MIC
  single step mutation frequency: <5.9 × 10^−9
S. pneumoniae [6]; strain 3665 Macrolide-R [mef(A)], 2 × MIC
  single step mutation frequency: 6.8 × 10^−7
S. pneumoniae [6]; strain 3665 Macrolide-R [mef(A)], 4 × MIC
  single step mutation frequency: 1.4 × 10^−7
S. pneumoniae [6]; strain 3665 Macrolide-R [mef(A)], 8 × MIC
  single step mutation frequency: <4.5 × 10^−10
S. pneumoniae [6]; strain 7127 Macrolide-S [S20N in L4, A105V in L22], 2 × MIC
  single step mutation frequency: <2.0 × 10^−10
S. pneumoniae [6]; strain 7127 Macrolide-S [S20N in L4, A105V in L22], 4 × MIC
  single step mutation frequency: <2.0 × 10^−10
S. pneumoniae [6]; strain 7127 Macrolide-S [S20N in L4, A105V in L22], 8 × MIC
  single step mutation frequency: <2.0 × 10^−10
U. parvum
  MIC Range: 2 to 31 ng/mL
U. parvum; Ureaplasma parvum, read-out: MIC50
  MIC50: 8 ng/mL (≈ 9.47 nM)
U. parvum; Ureaplasma parvum, read-out: MIC90
  MIC90: 16 ng/mL (≈ 18.9 nM)

Reference: patent publication US9901592B2 (priority 2008, dated 2018)
